US20260007133A1, “HERBICIDAL COMPOSITION COMPRISING AZINE COMPOUNDS” (BASF SE, priority 2022, published 2026)

Assays:
Assay type in all cases: in vivo
Abutilon theophrasti [1] = assay: Greenhouse pre-emergence (PRE) herbicidal test on ABUTH
Outline: (§1)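 Visual 0–100 rating at 20 days after treatment; 0 = normal growth, 100 = no emergence or complete kill of shoots. Pre-emergent application to seeded pots of loamy sand (~3.0% humus), species-dependent temperature 10-25° C or 20-35° C.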

Commelina benghalensis [2] = assay: Greenhouse pre-emergence (PRE) herbicidal test on COMBE; details: Commelina benghalensis, pre-emergence
Outline: as §1

Geranium pusillum [3] = assay: Greenhouse pre-emergence (PRE) herbicidal test on GERPU; details: for % activity: GERPU
Text: (§2) The culture containers used were plastic pots containing loamy sand with approximately 3.0% of humus as substrate. The seeds of the test plants were sown separately for each species.
(§3) For the pre-emergence treatment, the active compounds, suspended or emulsified in water, were applied directly after sowing by means of finely distributing nozzles. The containers were irrigated gently to promote germination and growth and subsequently covered with transparent plastic hoods until the plants had rooted. This cover caused uniform germination of the test plants unless this was adversely affected by the active compounds.
(§4) Depending on the species, the plants were kept at 10-25° C. and 20-35° C., respectively.
(§5) The test period extended over 2 to 4 weeks. During this time, the plants were tended and their response to the individual treatments was evaluated.
(§6) Evaluation was carried out using a scale from 0 to 100. 100 means no emergence of the plants, or complete destruction of at least the above-ground parts, and 0 means no damage or normal course of growth. A good herbicidal activity is given at values of at least 70, and very good herbicidal activity is given at values of at least 85.
(§7) If not stated differently, the respective components A and B, and if appropriate, C were formulated as a 5% by weight strength emulsion concentrate and, with addition of the amount of solvent system, introduced into the spray liquor used for applying the active compound.
(§8) As indicated application was either post emergent (POST) at the respective growth stage (GS) of the weed (BBCH code), or pre-emergent (PRE).
(§9) Assessment was 20 days after treatment (DAT).

Alopecurus myosuroides = assay: Greenhouse pre-emergence (PRE) herbicidal test on ALOMY
Outline: as §1

Commelina benghalensis [4] = assay: Greenhouse post-emergence (POST) herbicidal test on COMBE; details: 480 h, 20 DAT
Protocol: as §2
(§10) For the post-emergence treatment, the test plants were grown to a plant height of from 3 to 15 cm, depending on the plant habit, and only then treated with the active compounds which had been suspended or emulsified in water. To this end, the test plants were either sown directly, and grown in the same containers, or they were first grown separately as seedlings and transplanted into the test containers a few days prior to treatment.
as §4, §5, §6, §7, §8, §9

Digitaria sanguinalis = assay: Greenhouse post-emergence (POST) herbicidal test on DIGSA; details: Digitaria sanguinalis, post-emergence, 480 h, POST, DIGSA, use rate 100 gai/ha, 20 DAT
Outline: (§11)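 POST spray at 3–15 cm plant height, BBCH stage as given; loamy sand, ~3.0% humus; 10-25° C / 20-35° C per species; 0–100 damage scale; read 20 DAT.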

Echinochloa crus-galli [5] = assay: Greenhouse post-emergence (POST) herbicidal test on ECHCG; details: Echinochloa crus-galli, post-emergence, 480 h, POST, ECHCG, use rate 100 gai/ha, 20 DAT; read-out: % activity
Outline: as §11

Geranium pusillum [6] = assay: Greenhouse post-emergence (POST) herbicidal test on GERPU; details: Geranium pusillum, post-emergence, 480 h, POST, GERPU, 20 DAT
Outline: as §11

Amaranthus retroflexus = assay: Greenhouse post-emergence (POST) herbicidal test on AMARE; details: Amaranthus retroflexus, post-emergence, 480 h, POST, 20 DAT
Outline: as §11

AMAPA = assay: Greenhouse pre-emergence (PRE) herbicidal test on AMAPA
Euphorbia heterophylla [7] = assay: Greenhouse pre-emergence (PRE) herbicidal test on EPHHL; details: Euphorbia heterophylla, pre-emergence
Outline: as §1

Ipomoea hederacea = assay: Greenhouse pre-emergence (PRE) herbicidal test on IPOHE; details: Ipomoea hederacea, pre-emergence
Text: as §2, §3, §4, §5, §6, §7, §8, §9

Abutilon theophrasti [8] = assay: Greenhouse post-emergence (POST) herbicidal test on ABUTH; details: Abutilon theophrasti, post-emergence, 480 h, POST, ABUTH, 20 DAT
Outline: as §11

Ambrosia artemisiifolia = assay: Greenhouse pre-emergence (PRE) herbicidal test on AMBEL; details: PRE, 10 DAT
Echinochloa crus-galli [9] = assay: Greenhouse pre-emergence (PRE) herbicidal test on ECHCG; details: PRE; for % activity: 10 DAT
Euphorbia heterophylla [10] = assay: Greenhouse post-emergence (POST) herbicidal test on EPHHL; details: Euphorbia heterophylla, post-emergence, 480 h, POST, EPHHL, 20 DAT
Outline: as §11

Setaria viridis = assay: Greenhouse post-emergence (POST) herbicidal test on SETVI; details: 480 h, 20 DAT
Protocol: as §2, §10, §4, §5, §6, §7, §8, §9

Avena fatua = assay: Greenhouse pre-emergence (PRE) herbicidal test on AVEFA
Text: as §2, §3, §4, §5, §6, §7, §8, §9

Brachiaria decumbens = assay: Greenhouse pre-emergence (PRE) herbicidal test on BRADC; details: Urochloa decumbens, BRADC PRE, use rate 400 gai/ha
Text: as §2, §3, §4, §5, §6, §7, §8, §9

Lolium multiflorum = assay: Greenhouse pre-emergence (PRE) herbicidal test on LOLMU; details: Lolium multiflorum, pre-emergence, LOLMU PRE
Outline: as §1

Galium aparine = assay: Greenhouse pre-emergence (PRE) herbicidal test on GALAP; details: Galium aparine, pre-emergence; GALAP PRE, use rate 1200 gai/ha
Text: as §2, §3, §4, §5, §6, §7, §8, §9

COc1cc(OC)nc(Oc2cccc(Oc3nc(OC)cc(OC)n3)c2C(=O)O)n1 [Bispyribac-Sodium, bispyribac-sodium]
inhibition at […] (Abutilon theophrasti [1]; Abutilon theophrasti, pre-emergence, 480 h, PRE, use rate 7.5 gai/ha, 20 DAT, read-out: % activity): 5%
inhibition at 15 g/ha (Abutilon theophrasti [1]; Abutilon theophrasti, pre-emergence, 480 h, PRE, use rate 15 gai/ha, 20 DAT, read-out: % activity): 45%
inhibition at 15 g/ha (Commelina benghalensis [2]; 480 h, PRE, use rate 15 gai/ha, 20 DAT): 80%
inhibition at […] (Geranium pusillum [3]; Geranium pusillum, pre-emergence, 480 h, PRE, use rate 7.5 gai/ha, 20 DAT): 75%

O=C(Nc1ccc(F)cc1)c1cccc(Oc2cccc(C(F)(F)F)c2)n1 [Picolinafen, picolinafen]
% activity (Alopecurus myosuroides; PRE, ALOMY, use rate 50 gai/ha, 20 DAT): 25%
% activity (Geranium pusillum [3]; PRE, use rate 50 gai/ha, 20 DAT): 15%
% activity (Geranium pusillum [3]; PRE, use rate 100 gai/ha, 20 DAT): 40%

O=C(Nc1ccc(F)cc1F)c1cccnc1Oc1cccc(C(F)(F)F)c1 [Diflufenican, diflufenican]
inhibition at 50 g/ha (Commelina benghalensis [4]; use rate 50 gai/ha): 25%
inhibition at 100 g/ha (Commelina benghalensis [4]; use rate 100 gai/ha): 20%
inhibition at 100 g/ha (Digitaria sanguinalis): 35%
inhibition at 100 g/ha (Echinochloa crus-galli [5]): 40%
inhibition at 50 g/ha (Geranium pusillum [6]; use rate 50 gai/ha): 25%

O=C(O)c1c(Cl)ccc2cc(Cl)cnc12 [Quinclorac, quinclorac]
inhibition at 500 g/ha (Commelina benghalensis [2]; 480 h, PRE, use rate 500 gai/ha, 20 DAT): 65%
inhibition at 125 g/ha (Amaranthus retroflexus; use rate 125 gai/ha): 50%
inhibition at 62.5 g/ha (AMAPA; pre-emergence, 480 h, use rate 62.5 gai/ha, 20 DAT): 60%
inhibition at 125 g/ha (AMAPA; pre-emergence, 480 h, use rate 125 gai/ha, 20 DAT): 65%
inhibition at 250 g/ha (AMAPA; pre-emergence, 480 h, use rate 250 gai/ha, 20 DAT): 65%
inhibition at 500 g/ha (AMAPA; pre-emergence, 480 h, use rate 500 gai/ha, 20 DAT): 70%

Cc1ccccc1CO[C@@H]1C[C@@]2(C(C)C)CC[C@]1(C)O2 (racemic) [Cinmethylin, cinmethylin]
inhibition at 25 g/ha (Euphorbia heterophylla [7]; 480 h, PRE, EPHHL, use rate 25 gai/ha, 20 DAT): 0%
inhibition at 50 g/ha (Euphorbia heterophylla [7]; 480 h, PRE, EPHHL, use rate 50 gai/ha, 20 DAT): 0%
inhibition at 25 g/ha (Ipomoea hederacea; 480 h, PRE, IPOHE, use rate 25 gai/ha, 20 DAT): 0%
inhibition at 50 g/ha (Ipomoea hederacea; 480 h, PRE, IPOHE, use rate 50 gai/ha, 20 DAT): 0%
inhibition at 50 g/ha (Abutilon theophrasti [8]; use rate 50 gai/ha): 0%
inhibition at 100 g/ha (Abutilon theophrasti [8]; use rate 100 gai/ha): 0%
inhibition at 25 g/ha (Amaranthus retroflexus; AMARE, use rate 25 gai/ha): 0%
inhibition at 100 g/ha (Amaranthus retroflexus; AMARE, use rate 100 gai/ha, read-out: % activity): 30%
inhibition at 25 g/ha (Geranium pusillum [6]; use rate 25 gai/ha): 10%

icafolin
% activity (Abutilon theophrasti [1]; PRE, use rate 12.5 gai/ha, 10 DAT): 20%
% activity (Ambrosia artemisiifolia; use rate 25 gai/ha): 10%
% activity (Ambrosia artemisiifolia; use rate 50 gai/ha): 15%
% activity (Echinochloa crus-galli [9]; use rate 12.5 gai/ha): 25%
% activity (Echinochloa crus-galli [9]; use rate 50 gai/ha): 30%
% activity (AMAPA; use rate 25 gai/ha, 10 DAT): 10%

Cn1nc(C(F)(F)F)c(CS(=O)(=O)C2=NOC(C)(C)C2)c1OC(F)F [Pyroxasulfone, pyroxasulfone]
inhibition at 4 g/ha (Abutilon theophrasti [1]; Abutilon theophrasti, pre-emergence, 480 h, PRE, ABUTH, use rate 4 gai/ha, 20 DAT): 0%
inhibition at 8 g/ha (Abutilon theophrasti [1]; Abutilon theophrasti, pre-emergence, 480 h, PRE, ABUTH, use rate 8 gai/ha, 20 DAT, read-out: % activity): 0%
inhibition at 16 g/ha (Abutilon theophrasti [1]; Abutilon theophrasti, pre-emergence, 480 h, PRE, ABUTH, use rate 16 gai/ha, 20 DAT): 10%
inhibition at 4 g/ha (Echinochloa crus-galli [9]; Echinochloa crus-galli, pre-emergence, 480 h, ECHCG, use rate 4 gai/ha, 20 DAT): 80%
inhibition at 8 g/ha (Echinochloa crus-galli [9]; Echinochloa crus-galli, pre-emergence, 480 h, ECHCG, use rate 8 gai/ha, 20 DAT, read-out: % activity): 80%
inhibition at 4 g/ha (Euphorbia heterophylla [7]; 480 h, PRE, EPHHL, use rate 4 gai/ha, 20 DAT): 25%
inhibition at 8 g/ha (Euphorbia heterophylla [7]; 480 h, PRE, EPHHL, use rate 8 gai/ha, 20 DAT, read-out: % activity): 20%
inhibition at 16 g/ha (Euphorbia heterophylla [7]; 480 h, PRE, EPHHL, use rate 16 gai/ha, 20 DAT): 25%
inhibition at 16 g/ha (Ipomoea hederacea; 480 h, PRE, IPOHE, use rate 16 gai/ha, 20 DAT): 0%
inhibition at 16 g/ha (Commelina benghalensis [4]; use rate 16 gai/ha): 45%
inhibition at 8 g/ha (Euphorbia heterophylla [10]; use rate 8 gai/ha, read-out: % activity): 10%
inhibition at 16 g/ha (Euphorbia heterophylla [10]; use rate 16 gai/ha): 25%
inhibition at 4 g/ha (Setaria viridis; use rate 4 gai/ha): 30%
inhibition at 8 g/ha (Setaria viridis; use rate 8 gai/ha): 40%
inhibition at 16 g/ha (Setaria viridis; use rate 16 gai/ha): 80%

CCC(C)(CC)c1cc(NC(=O)c2c(OC)cccc2OC)on1 [Isoxaben, isoxaben]
inhibition at 400 g/ha (Alopecurus myosuroides; Alopecurus myosuroides, pre-emergence, ALOMY PRE, use rate 400 gai/ha): 15%
inhibition at 100 g/ha (Avena fatua; use rate 100 gai/ha): 0%
inhibition at 400 g/ha (Avena fatua; use rate 400 gai/ha): 0%
inhibition at 400 g/ha (Brachiaria decumbens): 0%
inhibition at 100 g/ha (Geranium pusillum [3]; Geranium pusillum, pre-emergence, GERPU PRE, use rate 100 gai/ha): 15%
inhibition at 100 g/ha (Lolium multiflorum; use rate 100 gai/ha): 0%
inhibition at 400 g/ha (Lolium multiflorum; use rate 400 gai/ha): 0%

Nc1c([N+](=O)[O-])ccc(Oc2ccccc2)c1Cl [Aclonifen, aclonifen]
inhibition at 1200 g/ha (Abutilon theophrasti [1]; Abutilon theophrasti, pre-emergence, ABUTH PRE, use rate 1200 gai/ha): 35%
inhibition at 300 g/ha (Alopecurus myosuroides; Alopecurus myosuroides, pre-emergence, ALOMY PRE, use rate 300 gai/ha): 0%
inhibition at 1200 g/ha (Alopecurus myosuroides; Alopecurus myosuroides, pre-emergence, ALOMY PRE, use rate 1200 gai/ha): 50%
inhibition at 300 g/ha (Avena fatua; use rate 300 gai/ha): 0%
inhibition at 1200 g/ha (Avena fatua; use rate 1200 gai/ha): 0%
inhibition at 1200 g/ha (Commelina benghalensis [2]; COMBE PRE, use rate 1200 gai/ha): 85%
inhibition at 300 g/ha (Euphorbia heterophylla [7]; EPHHL PRE, use rate 300 gai/ha): 20%
inhibition at 1200 g/ha (Euphorbia heterophylla [7]; EPHHL PRE, use rate 1200 gai/ha): 50%
inhibition at 1200 g/ha (Galium aparine): 45%
inhibition at 300 g/ha (Geranium pusillum [3]; Geranium pusillum, pre-emergence, GERPU PRE, use rate 300 gai/ha): 30%
inhibition at 1200 g/ha (Geranium pusillum [3]; Geranium pusillum, pre-emergence, GERPU PRE, use rate 1200 gai/ha): 65%
inhibition at 1200 g/ha (Ipomoea hederacea; IPOHE PRE, use rate 1200 gai/ha): 0%
inhibition at 300 g/ha (Lolium multiflorum; use rate 300 gai/ha): 10%
